A word on the mass density: it is the mass of a sample divided by its volume.

We go through four compounds from the NIST ThermoML archive (doi:10.1021/je050029o).

Numbers after ± are expanded uncertainties.

For the data set the following is noted: 298.15 K; 101.33 kPa; Liquid; Pycnometric method.
On to `CC1CCCCC1` [methylcyclohexane], for which the mass density stood at 765.2 ± 0.7 kg/m3. Take `COC(C)(C)C` [2-methoxy-2-methylpropane]: the mass density turned out to be 740.6 ± 1.7 kg/m3. To `CO` [methanol] belongs 786.8 ± 0.7 kg/m3; to `CCCCCCC` [heptane], 679.5 ± 0.6 kg/m3.
